Experiment [1] deals with Recombinant human ENPP1 protein (Homo sapiens (Human), UniProt P22413). Kind of experiment: ENPP1 cGAMP Biochemical Assay. The following applies: 0.5 nM ENPP1, 1000 nM 2′3′-cGAMP substrate, TR-FRET. How it is done: ENPP1 cGAMP Biochemical Assay
Compounds were added to 384 well Proxiplate (PerkinElmer, Waltham MA) at 100 nl/well from DMSO stocks using Echo (Labcyte, San Jose CA). Recombinant human ENPP1 protein (R&D Systems, Minneapolis MN) was prepared in assay buffer (50 mM Tris pH7.5, 1 mM TCEP pH7.0, 2 mM MgCl2 and 0.005% Tween20) and added at 10 μl/well. The plate was sealed, centrifuged at 1000 rpm for 1 minute and incubated at room temperature for 30 minutes before 5 μl substrate 2′3′-cGAMP (R&D Systems, Minneapolis MN) in assay buffer was added to each well to a final concentration of 0.5 nM ENPP1 and 1000 nM 2′3′-cGAMP. The plate was sealed and centrifuged at 1000 rpm for 1 minute again. After incubation at 25° C. for 60 minutes, Terbium labelled AMP/GMP antibody and AMP/GMP HiLyte647 Tracer (BellBrook Labs, Fitchburg WI) in detection buffer (50 mM Tris pH7.5, 20 mM EDTA and 0.1% Prionex) were added to the reaction mixture to a final concentration of 2 nM (5 μl/well). The assay plate was incubated at room temperature for 120 minutes. TR-FRET signal was detected using Envision (PerkinElmer, Waltham MA).

For experiment [2], the target named is Recombinant human ENPP3 protein (Homo sapiens (Human), UniProt O14638). Description: ENPP3 cGAMP Biochemical Assay. The following applies: 70.5 nM ENPP3, 120 μM 2′3′-cGAMP substrate, TR-FRET. Here is the method:
ENPP3 cGAMP Biochemical Assay
Compounds were added to 384 well Proxiplate (PerkinElmer, Waltham MA) at 100 nl/well from DMSO stocks using Echo (Labcyte, San Jose CA). Recombinant human ENPP3 protein (Acro Biosystems, Newwark DE) was prepared in assay buffer (50 mM Tris pH7.5, 1 mM TCEP pH7.0, 2 mM MgCl2, 2 mM CaCl2), 2 mM ZnCl2 and 0.005% Tween20) and added at 2 μl/well. The plate was sealed, centrifuged at 1000 rpm for 1 minute and incubated at room temperature for 30 minutes before 2 μl substrate 2′3′-cGAMP (R&D Systems, Minneapolis MN) in assay buffer was added to each well to a final concentration of 70.5 nM ENPP3 and 120 μM 2′3′-cGAMP. The plate was sealed and centrifuged at 1000 rpm for 1 minute again. After incubation at 25° C. for 60 minutes, Terbium labelled AMP/GMP antibody and AMP/GMP HiLyte647 Tracer (BellBrook Labs, Fitchburg WI) in detection buffer (50 mM Tris pH7.5, 20 mM EDTA and 0.1% Prionex) were added to the reaction mixture to a final concentration of 475 nM and 3 nM respectively. The assay plate was incubated at room temperature for 120 minutes. TR-FRET signal was detected using Envision (PerkinElmer, Waltham MA).
A general note: Time-resolved FRET reads energy transfer from a long-lived donor to a nearby acceptor.

One may read the IC50 as the point on the concentration scale where inhibition reaches its midpoint.

Each structure is given as a SMILES string.

Recombinant human ENPP3 protein, sequence (O14638 whole entry): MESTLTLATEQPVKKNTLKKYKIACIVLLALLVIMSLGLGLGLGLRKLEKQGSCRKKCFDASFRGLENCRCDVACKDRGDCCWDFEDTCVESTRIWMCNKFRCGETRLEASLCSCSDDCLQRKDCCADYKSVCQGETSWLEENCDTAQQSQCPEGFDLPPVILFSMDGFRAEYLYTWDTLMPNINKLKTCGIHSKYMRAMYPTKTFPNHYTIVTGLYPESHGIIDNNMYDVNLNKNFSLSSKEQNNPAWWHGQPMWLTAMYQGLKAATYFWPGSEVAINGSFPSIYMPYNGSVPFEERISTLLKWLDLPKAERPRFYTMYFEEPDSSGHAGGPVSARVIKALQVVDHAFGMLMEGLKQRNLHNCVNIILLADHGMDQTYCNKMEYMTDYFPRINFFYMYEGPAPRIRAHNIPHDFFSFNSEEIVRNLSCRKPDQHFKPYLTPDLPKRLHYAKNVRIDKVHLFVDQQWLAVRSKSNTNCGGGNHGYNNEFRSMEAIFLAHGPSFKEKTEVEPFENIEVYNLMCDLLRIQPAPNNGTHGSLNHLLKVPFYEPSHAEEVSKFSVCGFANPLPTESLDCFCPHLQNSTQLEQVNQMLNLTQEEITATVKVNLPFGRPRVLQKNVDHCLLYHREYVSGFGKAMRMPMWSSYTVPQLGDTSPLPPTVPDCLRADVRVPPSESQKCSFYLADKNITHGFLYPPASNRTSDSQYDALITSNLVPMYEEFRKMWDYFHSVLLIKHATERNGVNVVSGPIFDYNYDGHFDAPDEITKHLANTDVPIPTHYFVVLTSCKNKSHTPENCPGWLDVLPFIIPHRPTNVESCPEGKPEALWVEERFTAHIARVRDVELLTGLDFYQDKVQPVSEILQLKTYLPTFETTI
Recombinant human ENPP1 protein, sequence (P22413 whole entry): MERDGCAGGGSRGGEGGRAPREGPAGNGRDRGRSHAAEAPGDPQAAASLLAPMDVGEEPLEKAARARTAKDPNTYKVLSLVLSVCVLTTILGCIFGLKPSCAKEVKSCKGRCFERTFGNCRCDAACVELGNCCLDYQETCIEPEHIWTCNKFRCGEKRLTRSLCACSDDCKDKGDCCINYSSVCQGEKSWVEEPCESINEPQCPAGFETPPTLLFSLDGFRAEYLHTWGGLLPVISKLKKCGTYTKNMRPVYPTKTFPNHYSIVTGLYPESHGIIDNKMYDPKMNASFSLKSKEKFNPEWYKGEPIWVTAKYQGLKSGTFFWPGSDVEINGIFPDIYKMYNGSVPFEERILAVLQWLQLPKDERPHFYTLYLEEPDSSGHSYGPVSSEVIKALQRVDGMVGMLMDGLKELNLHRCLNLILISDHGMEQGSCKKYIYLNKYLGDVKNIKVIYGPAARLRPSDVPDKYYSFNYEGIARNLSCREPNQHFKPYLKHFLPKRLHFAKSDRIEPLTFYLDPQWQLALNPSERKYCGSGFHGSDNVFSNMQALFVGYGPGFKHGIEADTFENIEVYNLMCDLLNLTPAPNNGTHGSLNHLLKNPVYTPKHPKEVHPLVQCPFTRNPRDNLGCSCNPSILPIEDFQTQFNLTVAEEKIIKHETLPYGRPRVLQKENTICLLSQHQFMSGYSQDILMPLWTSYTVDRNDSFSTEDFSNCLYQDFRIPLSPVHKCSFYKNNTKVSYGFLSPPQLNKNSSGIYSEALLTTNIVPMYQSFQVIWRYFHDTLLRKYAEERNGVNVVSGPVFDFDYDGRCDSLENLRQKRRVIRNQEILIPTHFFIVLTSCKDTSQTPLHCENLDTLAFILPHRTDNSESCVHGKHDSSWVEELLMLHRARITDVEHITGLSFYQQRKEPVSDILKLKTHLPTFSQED

As for `CCn1ncc2c(NCc3ccc(S(C)(=N)=O)cc3)ccnc21` (stereo not drawn) [Compound 9E, (4-(((1-ethyl-1H-pyrazolo[3,4-b]pyridin-4-yl)amino)methyl)phenyl)(imino)(methyl)-λ6-sulfanone], the IC50 in experiment [1] and in experiment [2] was ≥ 1000 nM each time.

As to `C#CCn1nc(Cl)c2c(NCC3CCN([S@@](C)(=N)=O)CC3)ccnc21` [Compound 13C, (R)-3-chloro-N-((1-(S-methylsulfonimidoyl)piperidin-4-yl)methyl)-1-(prop-2-yn-1-yl)-1H-pyrazolo[3,4-b]pyridin-4-amine], the figures for the IC50 in experiment [1] and in experiment [2] were < 10 nM and ≥ 1000 nM, respectively.

As to `CCn1nc(Cl)c2c(Nc3ccc(S(=N)(N)=O)cc3)ccnc21` (stereo not drawn) [Compound 5C, 4-((3-chloro-1-ethyl-1H-pyrazolo[3,4-b]pyridin-4-yl)amino)benzenesulfonimidamide], the results for the IC50 in experiment [1] and in experiment [2] were 10 to 100 nM and 100 to 1000 nM, respectively.

Consider `CCn1nc(Cl)c2c(NCc3ccc([S@](=N)(=O)CCOC)cc3)ccnc21` [Compound 9N, (R)-(4-(((3-chloro-1-ethyl-1H-pyrazolo [3,4-b]pyridine-4-yl)amino)methyl)phenyl)(imino)(2-methoxyethyl)-λ^6-sulfanone], for which the concentration for half-maximal inhibition (IC50) is < 10 nM in experiment [1] and ≥ 1000 nM in experiment [2].

With `N#CCn1nc(Cl)c2c(NCc3ccc(S(=N)(N)=O)cc3)ccnc21` (stereo not drawn) [Compound 11B, 4-(((3-chloro-1-(cyanomethyl)-1H-pyrazolo[3,4-b]pyridin-4-yl)amino)methyl)benzenesulfonimidamide], the IC50 in experiment [1] was < 10 nM; in experiment [2] it was 100 to 1000 nM.

Regarding `CN[S@](=N)(=O)c1ccc(CNc2ccnc3c2c(Cl)nn3CC#N)cc1` [Compound 10E, (S)-4-(((3-chloro-1-(cyanomethyl)-1H-pyrazolo[3,4-b]pyridin-4-yl)amino)methyl)-N-methylbenzenesulfonimidamide], the half-inhibitory concentration (IC50) in experiment [1] was < 10 nM; in experiment [2], 100 to 1000 nM.

Regarding `C#CCn1nc(Cl)c2c(NCc3ccc(S(C)(=N)=O)cc3)ccnc21` (stereo not drawn) [Compound 9D, (4-(((3-chloro-1-(prop-2-yn-1-yl)-1H-pyrazolo[3,4-b]pyridin-4-yl)amino)methyl)phenyl)(imino)(methyl)-λ6-sulfanone], the IC50 was < 10 nM in experiment [1] and 10 to 100 nM in experiment [2].

Consider `C#CCn1nc(Cl)c2c(NCC3CCN([S@](C)(=N)=O)CC3)ccnc21` [Compound 13B, (S)-3-chloro-N-((1-(S-methylsulfonimidoyl)piperidin-4-yl)methyl)-1-(prop-2-yn-1-yl)-1H-pyrazolo[3,4-b]pyridin-4-amine], for which the results for the IC50 in experiment [1] and in experiment [2] were < 10 nM and 10 to 100 nM, respectively.

As to `CCn1ncc2c(Nc3ccc(S(N)(=O)=NCC4CC4)cc3)ccnc21` (stereo not drawn) [Compound 5A, N′-(cyclopropylmethyl)-4-((1-ethyl-1H-pyrazolo [3,4-b]pyridin-4-yl)amino) benzenesulfonimidamide], the IC50 in experiment [1] fell in the range of 10 to 100 nM; in experiment [2] it was 100 to 1000 nM.

With `CCn1nc(Cl)c2c(NCc3ccc(S(=N)(N)=O)cc3)ccnc21` (stereo not drawn) [Compound 11C, 4-(((3-chloro-1-ethyl-1H-pyrazolo[3,4-b]pyridin-4-yl)amino)methyl)benzenesulfonimidamide], the IC50 in experiment [1] is < 10 nM; in experiment [2], ≥ 1000 nM.

For `C#CCn1nc(Cl)c2c(N(C)Cc3ccc([S@](C)(=N)=O)cc3)ccnc21` [Compound 9B, (R)-(4-(((3-chloro-1-(prop-2-yn-1-yl)-1H-pyrazolo[3,4-b]pyridin-4-yl)(methyl)amino)methyl)phenyl)(imino)(methyl)-λ^6-sulfanone], the IC50 in experiment [1] was < 10 nM; in experiment [2], 10 to 100 nM.

For `CN=S(N)(=O)c1ccc(CNc2ccnc3c2c(Cl)nn3CC#N)cc1` (stereo not drawn) [Compound 12B, 4-(((3-chloro-1-(cyanomethyl)-1H-pyrazolo[3,4-b]pyridin-4-yl)amino)methyl)-N′-methylbenzenesulfonimidamide], the figures for the IC50 in experiment [1] and in experiment [2] were < 10 nM and 100 to 1000 nM, respectively.

(Values after US20260049084A1, “ENPP1 MODULATORS AND PRODUCTS AND USES THEREOF” (Gossamer Bio Services, Inc., priority 2022, published 2026).)
